Measured values published in patent US20040150788A1, “Antimicrobial lenses, processes to prepare them and methods of their use” (priority 2002, published 2004).

Experiments:
[1] = cited from earlier work; for Ksp: silver salt, pure water at 25° C. (Table 1); for Ksp in pure H2O at 25° C. / Ksp In pure H2O at 25° C.: CRC Handbook of Chemistry and Physics; for Ksp in pure H2O at 25° C.: 74th edition (Table 8); for Ksp In pure H2O at 25° C.: 74th edition (Table 4)
[2] = Solubility-product constant (Ksp) and molar solubility of metal salts in pure water at 25° C.; details: derived from Ksp (Table 1)

Compound: [Cl][Ag] [AgCl, silver chloride]
- Ksp [1]: 1.77 × 10^−10

Compound: [O]=[Zn] [Zinc oxide]
- Ksp in pure H2O at 25° C. [1]: 3.87 × 10^−10

Compound: [Br][Ag] [Silver bromide]
- Ksp In pure H2O at 25° C. [1]: 5.35 × 10^−13

Compound: [Ag][I] [Agl, silver iodide]
- Ksp [1]: 8.51 × 10^−17
- Molar solubility, silver [2]: 9.22 nM

Compound: O=S(=O)([O-])[O-].[Ag+].[Ag+] [Silver sulfate]
- Ksp In pure H2O at 25° C. [1]: 1.20 × 10^−5
- Ksp [1]: 1.20 × 10^−5

Compound: Copper sulfide
- Ksp in pure H2O at 25° C. [1]: 6.00 × 10^−37
